Earlier results on 6 compounds are cited in publication PMC2766259 (Synapse (New York, N.Y.), 2009).

Series [1] deals with α4β2* nAChRs. Particulars: cited from earlier work.
The subject of series [2] is α4β2* nAChRs. Particulars: cited from earlier work. The source holds these as a separate data set.
In series [3] the test system is α4β2* nAChRs. Particulars: in rats; ref Saji et al., 2002; cited from earlier work.
Series [4] deals with α4β2* nAChRs. The settings on record: acute treatment, baboon, ref Kassiou et al., 2001, cited from earlier work.
The subject of series [5] is α4β2* nAChRs. Particulars: human smokers, 2-[^18F]FA; ref Brody et al., 2006; cited from earlier work.
The test system of series [6] is α4β2* nAChRs. Particulars: human nAChR imaging; ref Scheffel et al., 2000; Villemagne et al., 1998; cited from earlier work.

Where two headings read alike, the source gives them in different places.

In the case of `[18F]c1ncccc1OC[C@@H]1CCN1` [2-[^18F]FA, 2-[^18F]fluoro-3-(2(S)-azetidinylmethoxy)pyridine, reference compound], the “Conclusion: safety and efficacy” value in the series with α4β2* nAChRs [1] (2 monkeys, ref Kimes et al., 2003) is “• 2-[^18F]FA is safe and efficacious in monkeys and humans”; with α4β2* nAChRs [1] (ref Chefer et al., 1999) it was “• 2-[^18F]FA is safe and efficacious for brain imaging in monkeys”. Besides, the “Conclusion: peaks” value with α4β2* nAChRs [1] (a monkey, ref Dollé et al., 1999) is “• In baboons 2-[^18F]FA has lower peaks than [^18F]fluoronorchloroepibatidine. In a monkey 2-[^18F]FA has lower peaks than 5-[^123I]IA”; with α4β2* nAChRs [2] (in vivo), “• In baboons 2-[^18F]FA has lower peaks than [^18F]fluoronorchloroepibatidine. In a monkey 2-[^18F]FA has lower peaks than 5-[^123I]IA”.
Turning to `[18F]c1ccc(OC[C@@H]2CCN2)cn1` [6-[^18F]FA, 6-[^18F]fluoro-3-(2(S)-azetidinylmethoxy)pyridine], the “Conclusion: safety and efficacy” value with α4β2* nAChRs [1] (ref Horti et al., 2000) was “• 6-[^18F]FA is safe and efficacious for brain imaging in monkeys”.
As for `CN1CCC[C@H]1c1cccnc1` [(−)-nicotine], the “effect on accumulation of 5-[^123I]IA in brain” value in the series on α4β2* nAChRs [3] is given as “blocked in all brain regions”. The “reduction in α4β2* nAChR uptake” value with α4β2* nAChRs [4] (frontal cortex) is recorded as 32%; with α4β2* nAChRs [4] (thalamus), 52%. Further, the “plasma nicotine level at uptake of half the α4β2* nAChRs” value in the series with α4β2* nAChRs [5] is on record as 0.87 ng/mL.
As to `[76Br]c1ccc(C2CC3CCC2N3)cn1` (stereo not drawn) [[^76Br]BrPH, [^76Br]norchlorobromoepibatidine, reference compound], the “Conclusion: safety and efficacy” value with α4β2* nAChRs [2] (ref Kassiou et al., 2002) is “[^76Br]BrPH is safe and efficacious in baboons”.
For the compound `[18F]c1cc(-c2cc(OC[C@@H]3CCN3)cnc2Cl)ccn1` [[^18F]NIDA522131, chloro-3-((2-(S)-azetidinyl)methoxy)-5-(2-[^18F]fluoropyridin-4-yl)pyridine], the “Conclusion: safety and efficacy” value with α4β2* nAChRs [1] (ref Chefer et al., 2008) was “• [^18 F]NIDA522131 is safe and efficacious for brain imaging in monkeys”.
`[11CH3]N1CCC[C@H]1c1cccnc1` [[^11C](S)-(−)-nicotine, reference compound]: the non-specific binding result with α4β2* nAChRs [6] is reported as “high degree of non-specific binding”.
